Assay results taken from patent US20050222147A1, “Process for the preparation of morpholine derivatives and intermediates therefore” (priority 2000, published 2005).
Counter-ions that a name gives are not always drawn.

Legend:
CCR-3 = biological target: T1, CCR-3 (Homo sapiens, UniProt P51677); test: CCR-3 competition binding SPA (scintillation proximity assay); conditions: read-out: CCR-3 Binding Assay (pIC50) (converted)
T1 construct: expressed in transfected cells
T1 sequence (P51677 1-355): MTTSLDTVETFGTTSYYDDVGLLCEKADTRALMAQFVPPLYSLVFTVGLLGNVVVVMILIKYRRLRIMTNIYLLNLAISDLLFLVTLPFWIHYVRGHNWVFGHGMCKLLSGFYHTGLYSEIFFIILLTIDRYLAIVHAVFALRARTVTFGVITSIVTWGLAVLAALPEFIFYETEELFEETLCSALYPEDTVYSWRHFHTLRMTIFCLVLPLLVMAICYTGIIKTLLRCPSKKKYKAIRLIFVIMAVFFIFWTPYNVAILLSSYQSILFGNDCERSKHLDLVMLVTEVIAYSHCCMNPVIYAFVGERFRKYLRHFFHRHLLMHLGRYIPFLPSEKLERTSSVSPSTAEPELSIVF
Procedure: A CCR-3 competition binding SPA (scintillation proximity assay) was used to assess the affinity of novel compounds for CCR-3. Membranes prepared from K562 cells stably expressing CCR-3 (2.51 μg/well) were mixed with 0.25 mg/well wheat-germ agglutinin SPA beads (Amersham) and incubated in binding buffer (HEPES 50 mM, CaCl2 1 mM, MgCl2 5 mM, 0.5% BSA) at 4° C. for 1.5 hr. Following incubation, 20 pM of [^125I) eotaxin (Amersham) and increasing concentrations of compound (1 pM to 30 μM) were added and incubated in a 96 well plate for 2 hr at 22° C. then counted on a Microbeta plate counter. The total assay volume was 100 μl. Competition binding data were analysed by fitting the data with a four parameter logistic equation. Data are presented as the mean pIC50 values (negative logarithm of the concentration of compound which inhibits [^125I] eotaxin binding by 50%) from at least two experiments.

eosinophil chemotaxis = test: Eosinophil chemotaxis assay (eotaxin-induced); type: cell-based, human; conditions: functional pKi (fpKi)
Procedure: (b) Eosinophil Chemotaxis Assay.
Compounds were evaluated for their inhibitory effect on eosinophil chemotaxis. Eosinophils were purified from human peripheral blood by standard CD16 cell depletion using a Miltenyi cell separation column and a magnetic Super Macs magnet as previously described (Motegi & Kita, 1998; J. Immunology. 161:4340-6). Cells were re-suspended in RPMI 1640/10% FCS solution and incubated with calcein-AM (Molecular Probes) at 37° C. for 30 mins. Following incubation, the eosinophils were centrifuged at 400 g for 5 min and re-suspended in RPMI/FCS at 2.2 million/ml. Cells. were then incubated in the presence of increasing concentration of compounds (1 pM to 30 μM) at 37° C. for 30 mins. For control responses cells were incubated with RPMI/FCS only. The agonist eotaxin (either a concentration response curve or for the functional inhibition curves an EC80 concentration) was added to the lower chamber of a 96 well chemotaxis plate (5 μm filter: Receptor Technologies). Eosinophils (50 μl of 2 million/ml cells) were added to the top chamber of the filter plate and incubated at 37° C. for 45 mins. Cells remaining on top of the chemotaxis filter were removed and the number of eosinophils which had migrated were quantified by reading the plate on a fluorescent plate reader. Inhibition curves for the effect of compounds on eosinophil chemotaxis were analysed by fitting the data with a four parameter logistic equation. Functional pK1 values (fpK1) were generated using the equation below (Lazareno & Birdsall, 1995. Br. J. Pharmacol 109: 1110-9). [formula] (c) Guinea-pig Ovalbumin Model

| SMILES | IC50 (CCR-3) | CCR-3 Eosinophil Chemotaxis Assay (fpKi) (eosinophil chemotaxis) |
| --- | --- | --- |
| C[C@H]1CO[C@H](CNC(=O)Cc2ccccc2)CN1Cc1ccc(Cl)c(Cl)c1 (relative stereo) [Example 25, N-{[(trans)4-(3,4-Dichlorobenzyl)-5-methylmorpholin-2-yl]methyl}-2-phenylacetamide] | 60.3 nM |  |
| C[C@H]1CO[C@H](CNC(=O)Cc2ccc(Cl)cc2)CN1Cc1ccc(Cl)c(Cl)c1 (relative stereo) [Example 27, 2-(4-Chlorophenyl)-N-{[(trans)-4-(3,4-dichlorobenzyl)-5-methylmorpholin-2-yl]methyl}acetamide] |  | 7.39 |
| CS(=O)(=O)c1ccc(CC(=O)NC[C@H]2CN(Cc3ccc(Cl)c(Cl)c3)CCO2)cc1 (single isomer, unassigned) [Example 39] |  | 8.31 |
| CS(=O)(=O)c1ccc(CC(=O)NCC2CN(Cc3ccc(Cl)c(Cl)c3)CCO2)cc1.O=CO (stereo not drawn) [Example 2, N-{[4-(3,4-Dichlorobenzyl)morpholin-2-yl]methyl}-2-[4-(methylsulfonyl)phenyl]acetamide salt with formic acid (1:1)] |  | 6.51 |
| O=C(Cc1cccc(F)c1)NCC1CN(Cc2ccc(Cl)c(Cl)c2)CCO1 (stereo not drawn) [Example 3, N-{[4-(3,4-Dichlorobenzyl)morpholin-2-yl]methyl}-2-(3-fluorophenyl)acetamide] |  | 7.15 |
| CSc1ccc(CC(=O)NCC2CN(Cc3ccc(Cl)c(Cl)c3)CCO2)cc1 (stereo not drawn) [Example 5, N-{[4-(3,4-Dichlorobenzyl)morpholin-2-yl]methyl}-2-[4-(methylthio)phenyl]acetamide] | 77.6 nM |  |
| O=C(Cc1ccc(F)c(F)c1)NCC1CN(Cc2ccc(Cl)c(Cl)c2)CCO1 (stereo not drawn) [Example 6, N-{[4-(3,4-Dichlorobenzyl)morpholin-2-yl]methyl}-2-(3,4-difluorophenyl)acetamide] | 138 nM |  |
| CN(C)S(=O)(=O)c1ccc(CC(=O)NCC2CN(Cc3ccc(Cl)c(Cl)c3)CCO2)cc1 (stereo not drawn) [Example 7, N-{[4-(3,4-Dichlorobenzyl)morpholin-2-yl]methyl}-2-{4-[(dimethylamino)sulfonyl]phenyl}acetamide salt with formic acid (1:1)] | 15.1 nM |  |
| O=C(Cc1cccc(Cl)c1)NCC1CN(Cc2ccc(Cl)c(Cl)c2)CCO1 (stereo not drawn) [Example 8, 2-(3-Chlorophenyl)-N-{[4-(3,4-dichlorobenzyl)morpholin-2-yl]methyl}acetamide] | 145 nM |  |
| NC(=O)c1ccc(CC(=O)NCC2CN(Cc3ccc(Cl)c(Cl)c3)CCO2)cc1 (stereo not drawn) [Example 10, 4-[2-({[4-(3,4Dichlorobenzyl)morpholin-2-yl]methyl}amino)-2-oxoethyl]benzamide] | 158 nM |  |
| CN(C)c1ccc(CC(=O)NCC2CN(Cc3ccc(Cl)c(Cl)c3)CCO2)cc1.O=CO (stereo not drawn) [Example 12, N-{[4-(3,4-Dichlorobenzyl)morpholin-2-yl]methyl}-2-[4-(dimethylamino)phenyl]acetamide salt with formic acid (1:1)] |  | 6.82 |
| O=C(Cc1cc(Cl)ccc1Cl)NCC1CN(Cc2ccc(Cl)c(Cl)c2)CCO1 (stereo not drawn) [Example 13, N-{[4-(3,4-Dichlorobenzyl)morpholin-2-yl]methyl}-2-(2,5-dichlorophenyl)acetamide] | 240 nM |  |
| O=C(Cc1ccc(C(F)(F)F)cc1)NCC1CN(Cc2ccc(Cl)c(Cl)c2)CCO1 (stereo not drawn) [Example 14] | 339 nM |  |
| O=C(Cc1cc(C(F)(F)F)cc(C(F)(F)F)c1)NCC1CN(Cc2ccc(Cl)c(Cl)c2)CCO1 (stereo not drawn) [Example 17, 2-[3,5-Bis(trifluoromethyl)phenyl]-N-{[4-(3,4-dichlorobenzyl)morpholin-2-yl]methyl}acetamide] |  | 6.24 |
| Cc1cc(F)ccc1CC(=O)NCC1CN(Cc2ccc(Cl)c(Cl)c2)CCO1 (stereo not drawn) [Example 19, N-{[4-(3,4-Dichlorobenzyl)morpholin-2-yl]methyl}-2-(4-fluoro-2-methylphenyl)acetamide] | 832 nM |  |
| COc1ccc(CC(=O)NCC2CN(Cc3ccc(Cl)c(Cl)c3)CCO2)cc1 (stereo not drawn) [Example 22, N-{[4-(3,4-Dichlorobenzyl)morpholin-2-yl]methyl}-2-(4-methoxyphenyl)acetamide] | 110 nM |  |

| SMILES | IC50 (CCR-3) | CCR-3 Eosinophil Chemotaxis Assay (fpKi) (eosinophil chemotaxis) |
| --- | --- | --- |
| COc1ccc2[nH]c(C)c(CC(=O)NCC3CN(Cc4ccc(Cl)c(Cl)c4)CCO3)c2c1 (stereo not drawn) [Example 31, N-{[4-(3,4-Dichlorobenzyl)morpholin-2-yl]methyl}-2-(5-methoxy-2-methyl-1H-indol-3-yl)acetamide] | 513 nM |  |
| O=C(Cc1ccsc1)NCC1CN(Cc2ccc(Cl)c(Cl)c2)CCO1 (stereo not drawn) [Example 32, N-{[4-(3,4-Dichlorobenzyl)morpholin-2-yl]methyl}-2-thien-3-ylacetamide] |  | 7.32 |
| Cc1nn(CC(=O)NCC2CN(Cc3ccc(Cl)c(Cl)c3)CCO2)c(C)c1Br (stereo not drawn) [Example 35] | 155 nM |  |
| O=C(Cc1csc(-c2cnccn2)n1)NCC1CN(Cc2ccc(Cl)c(Cl)c2)CCO1 (stereo not drawn) [Example 37, N-{[4-(3,4-Dichlorobenzyl)morpholin-2-yl]methyl}-2-(2-pyrazin-2-yl-1,3-thiazol-4-yi)acetamide] |  | 7.97 |
| O=C(Cc1ccco1)NCC1CN(Cc2ccc(Cl)c(Cl)c2)CCO1 (stereo not drawn) [Example 38, N-{[4-(3,4-Dichlorobenzyl)morpholin-2-yl]methyl}-2-(2-furyl)acetamide] | 100 nM |  |
| Cc1oc(-c2ccc(F)cc2)nc1CC(=O)NCC1CN(Cc2ccc(Cl)c(Cl)c2)CCO1 (stereo not drawn) [Example 41, N-{[4-(3,4-Dichlorobenzyl)morpholin-2-yl]methyl}-2-[2-(4-fluorophenyl)-5-methyl-1,3-oxazol-4-yl]acetamide] |  | 7.99 |
| O=C(Cc1csc(-c2cnccn2)n1)NC[C@H]1CN(Cc2ccc(Cl)c(Cl)c2)CCO1 [Example 42, N-([(2S)-4-(3,4-Dichlorobenzyl)morpholin-2-yl]methyl}-2-(2-pyrazin-2-yl-1,3-thiazol-4-yl)acetamide] |  | 9.32 |
| O=C(Cn1nnc(-c2ccccc2)n1)NC[C@H]1CN(Cc2ccc(Cl)c(Cl)c2)CCO1 [Example 44] | 6.76 nM |  |
| CS(=O)(=O)Nc1ccc(CC(=O)NCC2CN(Cc3ccc(F)c(F)c3)CCO2)cc1 (stereo not drawn) [Example 45] | 13.2 nM |  |
| CS(=O)(=O)Nc1ccc(CC(=O)NC[C@H]2CN(Cc3ccc(F)cc3)CCO2)cc1 [Example 46, N-{[(2S)-4-(4-Fluorobenzyl)morpholin-2-yl]methyl}-2-{4-[(methylsulfonyl)amino]phenyl}acetamide] | 72.4 nM |  |
| CS(=O)(=O)Nc1cccc(CC(=O)NC[C@H]2CN(Cc3ccc(Cl)s3)CCO2)c1 [Example 49, N-({(2S)-4-[(5-Chlorothien-2-yl)methyl]morpholin-2-yl}methyl)-2-{3-[(methylsulfonyl)amino]phenyl]acetamide] |  | 8.07 |
| O=C(Cc1cccc(C(=O)NC2CC2)c1)NCC1CN(Cc2ccc(Cl)c(Cl)c2)CCO1 (stereo not drawn) [Example 53, N-Cyclopropyl-3-[2-({[(3,4-dichlorobenzyl)morpolin-2-yl]methyl}amino)-2-oxoethyl]benzamide] | 4.07 nM |  |
| Cc1oc(-c2ccccc2)nc1CC(=O)NC[C@H]1CN(Cc2ccc(Cl)c(Cl)c2)CCO1 [Example 54, N-{[(2S)-4-(3,4-Dichlorobenzyl)morpholin-2-yl]methyl}-2-(5-methyl-2-phenyl-1,3-oxazol-4-yl)acetamide] | 24 nM | 7.96 |
| Cc1oc(-c2ccccc2)nc1CC(=O)NC[C@@H]1CN(Cc2ccc(Cl)c(Cl)c2)CCO1 [Example 55, N-{[(2R)-4-(3,4-Dichlorobenzyl)morpholin-2-yl]methyl}-2-(5-methyl-2-phenyl-1,3-oxazol-4-yl)acetamide] | 398 nM |  |
| NS(=O)(=O)c1cccc(CC(=O)NC[C@H]2CN(Cc3ccc(Cl)c(Cl)c3)CCO2)c1 [Example 162] | 12.6 nM | 8.2 |
